Where “and” joins values, the source holds several entries; their conditions need not be identical. Equal values may be shown once. Numbers after ± are expanded uncertainties.
Assay: Henry's Law constant (molality scale); of the first substance listed, at infinite dilution; xn = mol fraction of the nth substance listed
Details: Liquid, Chromatography, x1 = 0

Row | Henry's Law constant (332.15 K) | SMILES | Henry's Law constant (298.15 K) | Henry's Law constant (311.15 K) | Henry's Law constant (274.15 K) | Henry's Law constant (294.65 K) | Henry's Law constant (296.15 K) | Henry's Law constant (310.15 K) | Henry's Law constant (320.15 K) | Henry's Law constant (331.15 K) | Henry's Law constant (333.15 K) | Henry's Law constant (273.25 K) | Henry's Law constant (313.15 K) | Henry's Law constant (326.15 K)
1 | 3.28 ± 0.98 kPa·kg/mol | COCCO [2-methoxyethan-1-ol] + O | 0.223 ± 0.067 kPa·kg/mol | 0.665 ± 0.2 kPa·kg/mol |  |  |  |  |  |  |  |  |  | 
2 |  | Cc1ccc2ccccc2c1 [2-methylnaphthalene] + O |  |  | 4.91 ± 1.5 kPa·kg/mol | 31.4 kPa·kg/mol and 16.6 kPa·kg/mol | 35 ± 10 kPa·kg/mol | 84.4 ± 25 kPa·kg/mol | 106 ± 32 kPa·kg/mol | 169 ± 51 kPa·kg/mol | 166 ± 50 kPa·kg/mol |  |  | 
3 | 6.96 ± 2.1 kPa·kg/mol | CC(C)(C)O [2-methylpropan-2-ol] + O | 1.25 ± 0.37 kPa·kg/mol | 3.19 ± 0.96 kPa·kg/mol |  |  |  |  |  |  |  | 0.055 ± 0.017 kPa·kg/mol |  | 
4 |  | C=CCCl [3-chloro-1-propene] + O |  |  | 255 ± 76 kPa·kg/mol |  |  |  |  |  |  |  | 1350 ± 410 kPa·kg/mol | 3170 ± 950 kPa·kg/mol
5 |  | Cc1ccc(Cl)cc1 [4-chlorotoluene] + O |  |  | 85.6 kPa·kg/mol |  | 232 kPa·kg/mol | 224 kPa·kg/mol |  | 888 kPa·kg/mol |  |  | 591 kPa·kg/mol | 1240 kPa·kg/mol
6 |  | CC(=O)CC(C)C [4-methylpentan-2-one] + O |  |  | 0.834 ± 0.25 kPa·kg/mol | 8.08 kPa·kg/mol and 8.27 kPa·kg/mol | 9.34 ± 2.8 kPa·kg/mol | 37.2 ± 11 kPa·kg/mol | 72.5 ± 22 kPa·kg/mol | 164 ± 49 kPa·kg/mol | 236 ± 71 kPa·kg/mol |  |  | 
7 |  | Cl/C=C/Cl [(E)-1,2-dichloroethene] + O |  |  | 311 ± 93 kPa·kg/mol | 956 kPa·kg/mol and 852 kPa·kg/mol | 995 ± 300 kPa·kg/mol |  |  |  |  |  | 1820 ± 540 kPa·kg/mol | 2900 ± 870 kPa·kg/mol
8 |  | Cl/C=C\Cl [(Z)-1,2-dichloroethene] + O |  |  | 131 ± 39 kPa·kg/mol | 317 kPa·kg/mol and 330 kPa·kg/mol | 405 ± 120 kPa·kg/mol |  |  |  |  |  | 636 ± 190 kPa·kg/mol | 1110 ± 330 kPa·kg/mol
9 |  | ClCc1ccccc1 [(chloromethyl)benzene] + O | 50.6 ± 15 kPa·kg/mol | 139 ± 42 kPa·kg/mol |  |  |  |  |  |  |  | 7.81 ± 2.3 kPa·kg/mol |  | 
10 |  | CC(C)=O [acetone] + O |  |  | 0.231 ± 0.092 kPa·kg/mol | 1.44 kPa·kg/mol and 1.26 kPa·kg/mol | 1.13 ± 0.45 kPa·kg/mol | 7.55 ± 3 kPa·kg/mol | 11.5 ± 4.6 kPa·kg/mol | 16 ± 6.4 kPa·kg/mol | 41.1 ± 16 kPa·kg/mol |  |  | 
11 |  | CC#N [acetonitrile] + O |  |  | 0.21 ± 0.084 kPa·kg/mol | 1.41 kPa·kg/mol and 1.55 kPa·kg/mol | 1.7 ± 0.68 kPa·kg/mol | 5.36 ± 2.1 kPa·kg/mol | 12.6 ± 5.1 kPa·kg/mol | 6.17 kPa·kg/mol |  |  |  | 
12 |  | CC(=O)c1ccccc1 [acetophenone] + O |  |  | 0.128 ± 0.039 kPa·kg/mol | 0.881 kPa·kg/mol and 0.738 kPa·kg/mol | 1.6 ± 0.48 kPa·kg/mol | 2.48 ± 0.75 kPa·kg/mol | 4.6 ± 1.4 kPa·kg/mol | 8.87 ± 2.7 kPa·kg/mol |  |  |  | 
13 |  | C=CC#N [acrylonitrile] + O |  |  | 1.24 ± 0.37 kPa·kg/mol | 5.23 kPa·kg/mol and 8.07 kPa·kg/mol | 9.19 ± 2.8 kPa·kg/mol | 25.3 ± 7.6 kPa·kg/mol | 40 ± 12 kPa·kg/mol | 73.9 ± 22 kPa·kg/mol | 97.8 ± 29 kPa·kg/mol |  |  | 
14 |  | Brc1ccccc1 [bromobenzene] + O |  |  | 56.1 ± 17 kPa·kg/mol | 138 kPa·kg/mol and 147 kPa·kg/mol | 161 ± 48 kPa·kg/mol | 273 ± 82 kPa·kg/mol | 470 ± 140 kPa·kg/mol | 708 ± 210 kPa·kg/mol |  |  |  | 
15 |  | ClCBr [bromochloromethane] + O |  |  | 50.8 ± 15 kPa·kg/mol | 121 kPa·kg/mol and 123 kPa·kg/mol | 126 ± 38 kPa·kg/mol | 259 ± 78 kPa·kg/mol | 479 ± 140 kPa·kg/mol | 795 ± 240 kPa·kg/mol |  |  |  | 
16 |  | ClC(Cl)Br [bromodichloromethane] + O |  |  | 60.5 ± 18 kPa·kg/mol | 165 kPa·kg/mol and 162 kPa·kg/mol | 172 ± 51 kPa·kg/mol | 347 ± 100 kPa·kg/mol |  | 973 ± 290 kPa·kg/mol |  |  |  | 
17 |  | CBr [bromomethane] + O |  |  | 399 ± 120 kPa·kg/mol |  |  |  |  |  |  |  | 1120 ± 340 kPa·kg/mol | 1920 ± 580 kPa·kg/mol
18 |  | CCC(C)=O [butanone] + O |  |  | 0.416 ± 0.12 kPa·kg/mol | 1.72 kPa·kg/mol and 2.37 kPa·kg/mol | 2.62 ± 0.79 kPa·kg/mol | 8.13 ± 2.4 kPa·kg/mol | 15.3 ± 4.6 kPa·kg/mol | 43.9 ± 13 kPa·kg/mol | 62 ± 19 kPa·kg/mol |  |  | 
19 |  | CCCCc1ccccc1 [butylbenzene] + O |  |  | 174 kPa·kg/mol |  | 458 kPa·kg/mol | 481 kPa·kg/mol |  | 1280 kPa·kg/mol |  |  | 2290 kPa·kg/mol | 3470 kPa·kg/mol
20 |  | S=C=S [carbon disulfide] + O |  |  | 682 ± 200 kPa·kg/mol |  |  |  |  |  |  |  | 2930 ± 880 kPa·kg/mol | 5690 ± 1700 kPa·kg/mol
21 |  | CCCl [chloroethane] + O |  |  | 522 ± 160 kPa·kg/mol |  |  |  |  |  |  |  | 1950 ± 580 kPa·kg/mol | 2940 ± 880 kPa·kg/mol
22 |  | C=CCl [chloroethene] + O |  |  | 1140 ± 340 kPa·kg/mol |  |  |  |  |  |  |  | 4200 ± 1300 kPa·kg/mol | 6500 ± 1900 kPa·kg/mol

Row | SMILES | Henry's Law constant (332.15 K) | Henry's Law constant (298.15 K) | Henry's Law constant (311.15 K) | Henry's Law constant (274.15 K) | Henry's Law constant (294.65 K) | Henry's Law constant (296.15 K) | Henry's Law constant (310.15 K) | Henry's Law constant (320.15 K) | Henry's Law constant (331.15 K) | Henry's Law constant (333.15 K) | Henry's Law constant (273.25 K) | Henry's Law constant (313.15 K) | Henry's Law constant (326.15 K)
23 | C#CCO [2-propyn-1-ol] + O | 3.71 ± 1.1 kPa·kg/mol | 0.255 ± 0.076 kPa·kg/mol | 0.754 ± 0.23 kPa·kg/mol |  |  |  |  |  |  |  | 0.039 ± 0.012 kPa·kg/mol |  | 

Reference: the NIST ThermoML archive (doi:10.1021/je3010535)
